Source: PubChem BioAssay AID463179 (Southern Research Specialized Biocontainment Screening …, 2010)
Calls of active or inactive are those of the source. The rule behind the calls is not given here.

Columns and labels:
[1] = tested on: Salmonella Typhi PhoP-promoter GFP reporter, fluorescence, 4 h; experiment: Inhibitors of PhoP regulon, Salmonella typhi GFP reporter, confirmatory dose response (AID 463179)
[2] = as above; settings: Salmonella Typhi PhoP-promoter GFP reporter, fluorescence, 4 h; at 150 µM (top of the series)

| SMILES | IC50 [1] | inhibition [2] |
| --- | --- | --- |
| Clc1ccc(C2Sc3ccccc3N=C3c4ccccc4CC32)cc1 (centres undefined) | 6.26 µM |  |
| Cc1ccc(C2Sc3ccccc3N=C3c4ccccc4CC32)cc1 (centres undefined) | 2.67 µM |  |
| O=C1C2=C(Nc3ccccc3SC2c2cccc(Br)c2)c2ccccc21 (centres undefined) |  | -12.2% (inactive) |
| O=C1C2=C(Nc3ccccc3SC2c2ccc(Cl)cc2)c2ccccc21 (centres undefined) |  | 18% (inactive) |
